Assay results: US6720346B2, “Thiazole benzamide derivatives and pharmaceutical compositions for inhibiting cell proliferation” (Agouron Pharmaceuticals, Inc., priority 2001, dated 2004)

Columns and labels:
[1] = target: T1, CDK2/cyclin A (Homo sapiens, UniProt P24941); assay: Inhibition of CDK2/cyclin A retinoblastoma kinase activity (Ki; % inhibition); format: biochemical; conditions: for Ki: apparent Ki, CDK2/cyclin A, Rb substrate
T1 construct: made in house; host or cells: CDK2: insect cells (baculovirus); cyclin A: E. coli
Description: (§1) Cyclin-dependent kinase activity was measured by quantifying the enzyme-catalyzed, time-dependent incorporation of radioactive phosphate from [^32P]ATP or [^33P]ATP into a protein substrate. Unless noted otherwise, assays were performed in 96-well plates in a total volume of 50 μL, in the presence of 10 mM HEPES (N-[2-hydroxyethyl]piperazine-N′-[2-ethanesulfonic acid]) (pH 7.4), 10 mM MgCl2, 25 μM adenosine triphosphate (ATP), 1 mg/mL ovalbumin, 5 μg/mL leupeptin, 1 mM dithiothreitol, 10 mM β-glycerophosphate, 0.1 mM sodium vanadate, 1 mM sodium fluoride, 2.5 mM ethylene glycol-bis(β-aminoethyl ether)-N,N,N′N′-tetraacetic acid (EGTA), 2% (v/v) dimethylsulfoxide, and 0.03-0.4 μCi [^32/33P]ATP per reaction. Reactions were initiated with enzyme, incubated at 30° C., and terminated after 20 minutes by the addition of ethylenediaminetetraacetic acid (EDTA) to 250 mM. The phosphorylated substrate was then captured on a nitrocellulose or phosphocellulose membrane using a 96-well filtration manifold, and unincorporated radioactivity was removed by repeated washing with 0.85% phosphoric acid. Radioactivity was quantified by exposing the dried membranes to a phosphorimager.
(§2) Compounds from combinatorial libraries were screened from 96-well plates for % inhibition of CDK activity at 30 nM theoretical compound concentration. Inhibition was measured relative to control wells that contained all reaction components including 2% (v/v) DMSO but no compound, after subtraction of background radioactivity measured in the absence of enzyme. Apparent Ki values of discrete compounds were measured by assaying enzyme activity in the presence of different inhibitor compound concentrations and subtracting the background radioactivity measured in the absence of enzyme. The kinetic parameters (kcat, Km for ATP) were measured for each enzyme under the usual assay conditions by determining the dependence of initial rates on ATP concentration. Inhibition data were fit to an equation for competitive inhibition using Kaleidagraph (Synergy Software), or were fit to an equation for competitive tight-binding inhibition using the software KineTic (BioKin, Ltd.).
CDK2 was purified using published methodology (Rosenblatt et al., “Purification and Crystallization of Human Cyclin-dependent Kinase 2,” J. Mol. Biol., 230, 1993, pp. 1317-1319) from insect cells that had been infected with a baculovirus expression vector. […] A complex of CDK2 and proteolyzed cyclin A was prepared and purified by gel filtration. The substrate for this assay was the same Rb substrate fragment used for the CDK4 assays, and the methodology of the CDK2/delta cyclin A and the CDK4/delta cyclin D3 assays was essentially the same, except that CDK2 was present at 10 nM or 19 nM. The duration of the assay was 60 or 75 minutes, during which the time-dependence of product formation was linear and initial rate conditions were met.

[2] = target: T2, human CDK4/cyclin D3 (Homo sapiens, UniProt P11802); assay: Inhibition of CDK4/cyclin D retinoblastoma kinase activity (Ki; % inhibition); format: biochemical; conditions: for Ki: apparent Ki, CDK4/cyclin D3, Rb substrate
T2 construct: made in house; host or cells: insect cells co-infected with baculovirus vectors
T2 sequence (P11802 whole entry): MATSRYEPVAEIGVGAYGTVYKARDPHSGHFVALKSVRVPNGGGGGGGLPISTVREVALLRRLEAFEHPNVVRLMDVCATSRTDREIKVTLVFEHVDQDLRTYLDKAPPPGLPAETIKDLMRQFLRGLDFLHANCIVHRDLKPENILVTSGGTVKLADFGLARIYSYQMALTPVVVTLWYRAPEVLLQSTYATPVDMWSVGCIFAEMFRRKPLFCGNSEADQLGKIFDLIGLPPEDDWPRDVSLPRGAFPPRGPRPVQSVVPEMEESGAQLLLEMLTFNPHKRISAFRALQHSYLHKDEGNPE
T2 sequence (P30281 1-264 partner limits assumed): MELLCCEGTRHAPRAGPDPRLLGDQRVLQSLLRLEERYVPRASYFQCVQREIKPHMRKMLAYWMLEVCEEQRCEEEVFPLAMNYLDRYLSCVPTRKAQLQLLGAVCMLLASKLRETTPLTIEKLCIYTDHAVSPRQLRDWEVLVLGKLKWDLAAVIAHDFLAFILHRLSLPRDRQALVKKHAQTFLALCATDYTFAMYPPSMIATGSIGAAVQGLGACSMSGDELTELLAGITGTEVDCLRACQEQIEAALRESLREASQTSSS
Description: as §1, §2
A complex of human CDK4 and genetically truncated (1-264) cyclin D3 was purified using traditional biochemical chromatographic techniques from insect cells that had been co-infected with the corresponding baculovirus expression vectors (see e.g., Meijer and Kim, “Chemical Inhibitors of Cyclin-Dependent Kinases,” Methods in Enzymol., 283 (1997), pp. 113-128.). The enzyme complex (5 nM) was assayed with 0.3-0.5 μg of purified recombinant retinoblastoma protein fragment (Rb) as a substrate. The engineered Rb fragment (residues 386-928 of the native retinoblastoma protein; 62.3 kDa) contains the majority of the phosphorylation sites found in the native 106-kDa protein, as well as a tag of six histidine residues for ease of purification. Phosphorylated Rb substrate was captured by microfiltration on a nitrocellulose membrane and quantified using a phosphorimager as described above. For measurement of tight-binding inhibitors, the assay duration was extended to 60 minutes, during which the time-dependence of product formation was linear and initial rate conditions were met.

[3] = system: HCT-116 cell line; assay: Inhibition of cell growth, MTT tetrazolium salt assay; format: cell-based; conditions: for IC50: Homo sapiens, HCT-116, 120 h, MTT, three to five days
Description: Inhibition of cell growth was measured using the tetrazolium salt assay, which is based on the ability of viable cells to reduce 3-(4,5-dimethylthiazol-2-yl)-2,5-[2H]-diphenyltetrazolium bromide (MTT) to formazan (Mossman, Journal of Immunological Methods, 65, (1983), pp. 55-58). The water-insoluble purple formazan product was then detected spectrophotometrically. The HCT-116 cell line was used as a representative cancer cell line and grown in 96-well plates. Cells were plated in McCoy's 5A Medium at a volume of 135 μl/well. Plates were incubated for four hours before addition of inhibitor compounds. Different concentrations of inhibitor compounds were added in 0.5% (v/v) dimethylsulfoxide (15 μL/well), and cells were incubated at 37° C. (5% CO2) for three to five days. At the end of the incubation, MTT was added to a final concentration of 0.2 mg/mL, and cells were incubated for 4 hours more at 37° C. After centrifugation of the plates and removal of medium, the absorbance of the formazan (solubilized in dimethylsulfoxide) was measured at 540 nm. The concentration of inhibitor compound causing 50% (IC50) or 90% ([…]) inhibition of growth was determined from the linear portion of a semi-log plot of inhibitor concentration versus percent inhibition. All results were compared to control cells treated only with 0.5% (v/v) dimethylsulfoxide.

[4] = HCT-116 cells, 0.25 μM compound

Structure (SMILES)	CDK2 % Inhibition at 0.03 μM ([1]; 0.03 μM compound)	CDK4 % Inhibition at 0.03 μM ([2]; 0.03 μM compound)	HCT-116 % Inhibition at 0.1 μM ([3]; HCT-116 cells, 0.1 μM compound)	HCT-116 % Inhibition at 0.25 μM [3, 4]	CDK2 % Inhibition at 0.03 μM ([1]; at 0.03 μM)	CDK4 % Inhibition at 0.03 μM ([2]; at 0.03 μM)	HCT-116 % Inhibition at 0.25 μM ([3]; HCT-116, at 0.25 μM)	Ki [1]	Ki [2]	other results
COc1cccc(CCNC(=O)c2ccc(Nc3nc(N)c(C(=O)c4c(F)cccc4F)s3)cc2)c1OC [Example G203]	7%	20%	18%	53%						
COCCN(C)C(=O)c1ccc(Nc2nc(N)c(C(=O)c3c(F)cccc3F)s2)cc1 [Example G13]					−16%	0%	44%			
Nc1nc(Nc2ccc(C(=O)NCCc3cccs3)cc2)sc1C(=O)c1c(F)cccc1F [Example A26, 4-[4-Amino-5-(2,6-difluoro-benzoyl)-thiazol-2-ylamino]-N-(2-thiophen-2-yl-ethyl)-benzamide]								79 nM	20 nM	IC50 [3]: 170 nM
Nc1nc(Nc2ccc(C(=O)NC[C@@H]3CCCN3)cc2)sc1C(=O)c1c(F)cccc1F [Example A8, 4-[4-Amino-5-(2,6-difluoro-benzoyl)-thiazol-2-ylamino]-N-(pyrrolidin-2S-yl-methyl)-benzamide]								54 nM	5 nM	IC50 [3]: 740 nM
CC(=O)Nc1ccc(NC(=O)c2ccc(Nc3nc(N)c(C(=O)c4c(F)cccc4F)s3)cc2)cc1 [Example G66]					26%	14%	60%			
Nc1nc(Nc2ccc(C(=O)NCc3ccc(Cl)c(Cl)c3)cc2)sc1C(=O)c1c(F)cccc1F [Example G336]	36%	36%	12%	51%						
COc1ccc(CNC(=O)c2ccc(Nc3nc(N)c(C(=O)c4c(F)cccc4F)s3)cc2)cc1 [Example G169]					38%	49%	71%			HCT-116 % Inhibition at 0.1 μM ([3]; HCT-116, at 0.1 μM): 32%
Nc1nc(Nc2ccc(C(=O)N3CCSCC3)cc2)sc1C(=O)c1c(F)cccc1F [Example G26]					3%	13%	53%			
Nc1nc(Nc2ccc(C(=O)N3CCC(CO)CC3)cc2)sc1C(=O)c1c(F)cccc1F [Example G390]	−14%	2%	10%	40%						
COc1cccc(CNC(=O)c2ccc(Nc3nc(N)c(C(=O)c4c(F)cccc4F)s3)cc2)c1 [Example G246]	32%	35%	20%	62%						
CC(=O)Nc1ccccc1C(=O)c1sc(Nc2ccc(C(=O)NC[C@@H]3CCCN3C)cc2)nc1N [Example A72, 4-{5-(2-Acetylamino-benzoyl)-4-amino-thiazol-2-ylamino}-N-(1-methyl-pyrrolidin-2S-ylmethyl)-benzamide]										inhibition at 1 µM [1]: 0%; inhibition at 1 µM [2]: 0%; IC50 [3]: > 500 nM
CC(C)[C@@H](CO)NC(=O)c1ccc(Nc2nc(N)c(C(=O)c3c(F)cccc3F)s2)cc1 [Example G152]					16%	7%	53%			HCT-116 % Inhibition at 0.1 μM ([3]; HCT-116, at 0.1 μM): 5%
CN1[C@@H]2CC[C@@H](C2)[C@@H]1CNC(=O)c1ccc(Nc2nc(N)c(C(=O)c3c(F)cccc3F)s2)cc1 (relative stereo) [Example A76, 4-[4-Amino-5-(2,6-difluoro-benzoyl)-thiazol-2-ylamino]-N-(2-methyl-2-aza-bicyclo[2.2.1]hept-3-endo-ylmethyl)-benzamide]								15 nM	120 nM	IC50 [3]: 1100 nM
CCCCN(Cc1ccccc1)C(=O)c1ccc(Nc2nc(N)c(C(=O)c3c(F)cccc3F)s2)cc1 [Example G306]	−17%	0%	9%	44%						
CCCCN(CCCC)C(=O)c1ccc(Nc2nc(N)c(C(=O)c3c(F)cccc3F)s2)cc1 [Example G314]	−7%	0%	9%	47%						
Nc1nc(Nc2ccc(C(=O)Nc3ccc(O)c(Cl)c3)cc2)sc1C(=O)c1c(F)cccc1F [Example G394]	35%	11%	14%	73%						
Nc1nc(Nc2ccc(C(=O)Nc3ccc(Cl)c(Cl)c3)cc2)sc1C(=O)c1c(F)cccc1F [Example G84]					9%	3%	63%			
COc1cccc(CNC(=O)c2ccc(Nc3nc(N)c(C(=O)c4c(F)cccc4F)s3)cc2)c1OC [Example G332]	17%	14%	21%	66%						
Nc1nc(Nc2ccc(C(=O)NCCc3ccc(Cl)cc3Cl)cc2)sc1C(=O)c1c(F)cccc1F [Example G196]					7%	13%	48%			HCT-116 % Inhibition at 0.1 μM ([3]; HCT-116, at 0.1 μM): 13%
CN(C)CCN1C(=O)c2ccc(Nc3nc(N)c(C(=O)c4c(F)cccc4F)s3)cc2C1=O [E, 5-[4-Amino-5-(2,6-difluoro-benzoyl)-thiazol-2-ylamino]-2-(2-dimethylamino-ethyl)-isoindole-1,3-dione]								400 nM	240 nM	
Nc1nc(Nc2ccc(C(=O)Nc3cccnc3)cc2)sc1C(=O)c1c(F)cccc1F [Example A27, 4-[4-Amino-5-(2,6-difluoro-benzoyl)-thiazol-2-ylamino]-N-(pyridin-3-yl)-benzamide]								66 nM	41 nM	
Nc1nc(Nc2ccc(C(=O)NCCOCCO)cc2)sc1C(=O)c1c(Cl)cccc1Cl [Example B5, 4-[4-Amino-5-(2,6-dichloro-benzoyl)-thiazol-2-ylamino]-N-[2-(2-hydroxy-ethoxy)-ethyl]-benzamide]								150 nM	59 nM	
CN(C)CCNC(=O)c1ccc(Nc2nc(N)c(C(=O)C34CC5CC(CC(C5)C3)C4)s2)cc1 [Example A58, 4-[5-(1-Adamantan-1-yl-methanoyl)-4-amino-thiazol-2-ylamino]-N-(2-dimethylamino-ethyl)-benzamide]								3400 nM	1000 nM	
